For eleven compounds, EC50 results are on record in patent publication US9499550B2 (BRISTOL-MYERS SQUIBB COMPANY, priority 2012, dated 2016).

One may read the EC50 as the midpoint of the concentration-response curve.

For assay [1], the system named is HCV genotype 1a (H77 strain) replicon in HUH-7 cells. Kind of assay: HCV replicon luciferase reporter assay, genotype 1a. The settings on record: HCV genotype 1a replicon luciferase, 3 days incubation. The class given is cell-based. The gist of the method:
(§1)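 Replicon inhibition for both genotypes was measured as Renilla luciferase signal (EnduRen, 7.5 μM final, 2 h) after 3-day, 37° C exposure of replicon-bearing HUH-7 cells in 4% FCS DMEM, 0.5% DMSO. The 1b construct carries S1179I; the 1a H77 construct carries P1496L and S2204I. Twenty-point, 3-fold dilutions were fitted four-parametrically for EC50, and CC50 was taken from multiplexed Cell Titer-Blue.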

The test system of assay [2] is HCV genotype 1b (Con1) replicon in HUH-7 cells. Kind of assay: HCV replicon luciferase reporter assay, genotype 1b. The class given is cell-based. The settings on record: HCV genotype 1b replicon luciferase, 3 days incubation. In outline:
as §1
On the technique in general: A replicon is a self-replicating genome or part of one, used to study replication in cells.

[3] abbreviates: Hepatitis C virus, Huh-7, 72 h, read-out: LE_1a (EC50, range).
Setting [4] is: Hepatitis C virus, Huh-7, 72 h, read-out: LE_1b (EC50, range).

Where two headings read alike, the source gives them in different places.

Consider `CC[C@@H]1C[C@H](C)CC/C=C\[C@@H]2C[C@@]2(C(=O)NS(=O)(=O)C2CC2)NC(=O)[C@@H]2C[C@@H](Oc3nccc4c5c(ccc34)N(C)CCO5)CN2C(=O)[C@H]1NC(=O)C(=O)N(C)C` [Compound 5318, N1-((2R,6S,7R,9R,13aS,14aR,16aS,Z)-14a-((cyclopropylsulfonyl)carbamoyl)-7-ethyl-9-methyl-2-((4-methyl-3,4-dihydro-2H-[1,4]oxazino[2,3-f]isoquinolin-7-yl)oxy)-5,16-dioxo-1,2,3,5,6,7,8,9,10,11,13a,14,14a,15,16,16a-hexadecahydrocyclopropa[e]pyrrolo[1,2-a][1,4]diazacyclopentadecin-6-yl)-N2,N2-dimethyloxalamide], for which the concentration for a half-maximal effect (EC50) in assay [1] (setting [3]) and in assay [2] (setting [4]) was less than 5.46 nM each time.
As for `CC[C@@H]1C[C@@H](C)CC/C=C\[C@@H]2C[C@@]2(C(=O)NS(=O)(=O)C2(CF)CC2)NC(=O)[C@@H]2C[C@@H](Oc3nccc4c5c(ccc34)N(C)CCO5)CN2C(=O)[C@H]1NC(=O)OC(C)(C)C(F)(F)F` [Compound 5319, 1,1,1-trifluoro-2-methylpropan-2-yl((2R,6S,7R,9S,13aS,14aR,16aS,Z)-7-ethyl-14a-(((1-(fluoromethyl)cyclopropyl)sulfonyl)carbamoyl)-9-methyl-2-((4-methyl-3,4-dihydro-2H-[1,4]oxazino[2,3-f]isoquinolin-7-yl)oxy)-5,16-dioxo-1,2,3,5,6,7,8,9,10,11,13a,14,14a,15,16,16a-hexadecahydrocyclopropa[e]pyrrolo[1,2-a][1,4]diazacyclopentadecin-6-yl)carbamate], the figures for the EC50 in assay [1] (read-out: LE_1a (EC50)) and in assay [2] (read-out: LE_1b (EC50)) were 33.6 nM and 14.2 nM, respectively.
Consider `C[C@H]1CC/C=C\[C@@H]2C[C@@]2(C(=O)NS(=O)(=O)C2(CF)CC2)NC(=O)[C@@H]2C[C@@H](Oc3nccc4c5c(ccc34)OCCO5)CN2C(=O)[C@@H](NC(=O)OC(C)(C)C(F)(F)F)[C@H](C)C1` [Compound 5322, 1,1,1-trifluoro-2-methylpropan-2-yl((2R,6S,7R,9S,13aS,14aR,16aS,Z)-2-((2,3-dihydro-[1,4]dioxino[2,3-f]isoquinolin-7-yl)oxy)-14a-(((1-(fluoromethyl)cyclopropyl)sulfonyl)carbamoyl)-7,9-dimethyl-5,16-dioxo-1,2,3,5,6,7,8,9,10,11,13a,14,14a,15,16,16a-hexadecahydrocyclopropa[e]pyrrolo[1,2-a][1,4]diazacyclopentadecin-6-yl)carbamate], for which the EC50 in assay [1] (setting [3]) and in assay [2] (setting [4]) was less than 5.46 nM in each case.
On to `C[C@@H]1CC/C=C\[C@@H]2C[C@@]2(C(=O)NS(=O)(=O)C2(CF)CC2)NC(=O)[C@@H]2C[C@@H](Oc3nccc4c5c(ccc34)OCCO5)CN2C(=O)[C@@H](NC(=O)OC(C)(C)C(F)(F)F)[C@H](C)C1` [Compound 5323, 1,1,1-trifluoro-2-methylpropan-2-yl((2R,6S,7R,9R,13aS,14aR,16aS,Z)-2-((2,3-dihydro-[1,4]dioxino[2,3-f]isoquinolin-7-yl)oxy)-14a-(((1-(fluoromethyl)cyclopropyl)sulfonyl)carbamoyl)-7,9-dimethyl-5,16-dioxo-1,2,3,5,6,7,8,9,10,11,13a,14,14a,15,16,16a-hexadecahydrocyclopropa[e]pyrrolo[1,2-a][1,4]diazacyclopentadecin-6-yl)carbamate], for which the EC50 in assay [1] (setting [3]) and in assay [2] (setting [4]) was less than 5.46 nM throughout.
Consider `CC[C@@H]1C[C@H](C)CC/C=C\[C@@H]2C[C@@]2(C(=O)NS(=O)(=O)C2(C)CC2)NC(=O)[C@@H]2C[C@@H](Oc3nccc4c5c(ccc34)N(C)CCO5)CN2C(=O)[C@H]1NC(=O)OC(C)(C)C(F)(F)F` [Compound 5326, 1,1,1-trifluoro-2-methylpropan-2-yl((2R,6S,7R,9R,13aS,14aR,16aS,Z)-7-ethyl-9-methyl-2-((4-methyl-3,4-dihydro-2H-[1,4]oxazino[2,3-f]isoquinolin-7-yl)oxy)-14a-(((1-methylcyclopropyl)sulfonyl)carbamoyl)-5,16-dioxo-1,2,3,5,6,7,8,9,10,11,13a,14,14a,15,16,16a-hexadecahydrocyclopropa[e]pyrrolo[1,2-a][1,4]diazacyclopentadecin-6-yl)carbamate], for which the EC50 in assay [1] (setting [3]) and in assay [2] (setting [4]) was less than 5.46 nM in each case.
`CC[C@@H]1C[C@H](C)CC/C=C\[C@@H]2C[C@@]2(C(=O)NS(=O)(=O)C2(C)CC2)NC(=O)[C@@H]2C[C@@H](Oc3nccc4c5c(ccc34)N(C)CCO5)CN2C(=O)[C@H]1NC(=O)OC(C)(C)C(C)(F)F` [Compound 5328, 3,3-difluoro-2-methylbutan-2-yl((2R,6S,7R,9R,13aS,14aR,16aS,Z)-7-ethyl-9-methyl-2-((4-methyl-3,4-dihydro-2H-[1,4]oxazino[2,3-f]isoquinolin-7-yl)oxy)-14a-(((1-methylcyclopropyl)sulfonyl)carbamoyl)-5,16-dioxo-1,2,3,5,6,7,8,9,10,11,13a,14,14a,15,16,16a-hexadecahydrocyclopropa[e]pyrrolo[1,2-a][1,4]diazacyclopentadecin-6-yl)carbamate]: the EC50 in assay [1] (setting [3]) and in assay [2] (setting [4]) was less than 5.46 nM throughout.
With `CC[C@@H]1C[C@H](C)CC/C=C\[C@@H]2C[C@@]2(C(=O)NS(=O)(=O)C2(C)CC2)NC(=O)[C@@H]2C[C@@H](Oc3nccc4c5c(ccc34)N(C)CCO5)CN2C(=O)[C@H]1NC(=O)OC(C)(C)C` [Compound 5330, tert-butyl ((2R,6S,7R,9R,13aS,14aR,16aS,Z)-7-ethyl-9-methyl-2-((4-methyl-3,4-dihydro-2H-[1,4]oxazino[2,3-f]isoquinolin-7-yl)oxy)-14a-(((1-methylcyclopropyl)sulfonyl)carbamoyl)-5,16-dioxo-1,2,3,5,6,7,8,9,10,11,13a,14,14a,15,16,16a-hexadecahydrocyclopropa[e]pyrrolo[1,2-a][1,4]diazacyclopentadecin-6-yl)carbamate], the EC50 in assay [1] (setting [3]) and in assay [2] (setting [4]) was less than 5.46 nM each time.
On to `CC[C@@H]1C[C@@H](C)CC/C=C\[C@@H]2C[C@@]2(C(=O)NS(=O)(=O)C2(C)CC2)NC(=O)[C@@H]2C[C@@H](Oc3nccc4c5c(ccc34)OCCO5)CN2C(=O)[C@H]1NC(=O)OC(C)(C)C(C)(F)F` [Compound 5331, 3,3-difluoro-2-methylbutan-2-yl((2R,6S,7R,9S,13aS,14aR,16aS,Z)-2-((2,3-dihydro-[1,4]dioxino[2,3-f]isoquinolin-7-yl)oxy)-7-ethyl-9-methyl-14a-(((1-methylcyclopropyl)sulfonyl)carbamoyl)-5,16-dioxo-1,2,3,5,6,7,8,9,10,11,13a,14,14a,15,16,16a-hexadecahydrocyclopropa[e]pyrrolo[1,2-a][1,4]diazacyclopentadecin-6-yl)carbamate], for which the EC50 was 12.8 nM in assay [1] (Hepatitis C virus, Huh-7, 72 h, read-out: LE_1a (EC50)); 4.82 to 103 nM in assay [1] (setting [3]); 3.94 nM in assay [2] (Hepatitis C virus, Huh-7, 72 h, read-out: LE_1b (EC50)); less than 5.46 nM in assay [2] (setting [4]).
`CC[C@@H]1C[C@H](C)CC/C=C\[C@@H]2C[C@@]2(C(=O)NS(=O)(=O)C2(C)CC2)NC(=O)[C@@H]2C[C@@H](Oc3nccc4c5c(ccc34)OCCO5)CN2C(=O)[C@H]1NC(=O)OC(C)(C)C(C)(F)F` [Compound 5332, 3,3-difluoro-2-methylbutan-2-yl((2R,6S,7R,9R,13aS,14aR,16aS,Z)-2-((2,3-dihydro-[1,4]dioxino[2,3-f]isoquinolin-7-yl)oxy)-7-ethyl-9-methyl-14a-(((1-methylcyclopropyl)sulfonyl)carbamoyl)-5,16-dioxo-1,2,3,5,6,7,8,9,10,11,13a,14,14a,15,16,16a-hexadecahydrocyclopropa[e]pyrrolo[1,2-a][1,4]diazacyclopentadecin-6-yl)carbamate]: the EC50 in assay [1] (setting [3]) and in assay [2] (setting [4]) was less than 5.46 nM throughout.
For the compound `CC[C@@H]1C[C@@H](C)CC/C=C\[C@@H]2C[C@@]2(C(=O)NS(=O)(=O)C2(C)CC2)NC(=O)[C@@H]2C[C@@H](Oc3nccc4c5c(ccc34)OCCO5)CN2C(=O)[C@H]1NC(=O)OC(C)(C)C(F)(F)F` [Compound 5333, 1,1,1-trifluoro-2-methylpropan-2-yl((2R,6S,7R,9S,13aS,14aR,16aS,Z)-2-((2,3-dihydro-[1,4]dioxino[2,3-f]isoquinolin-7-yl)oxy)-7-ethyl-9-methyl-14a-(((1-methylcyclopropyl)sulfonyl)carbamoyl)-5,16-dioxo-1,2,3,5,6,7,8,9,10,11,13a,14,14a,15,16,16a-hexadecahydrocyclopropa[e]pyrrolo[1,2-a][1,4]diazacyclopentadecin-6-yl)carbamate], the EC50 in assay [1] (setting [3]) and in assay [2] (setting [4]) was 4.82 to 103 nM in each case.
In the case of `CC[C@@H]1C[C@H](C)CC/C=C\[C@@H]2C[C@@]2(C(=O)NS(=O)(=O)C2(C)CC2)NC(=O)[C@@H]2C[C@@H](Oc3nccc4c5c(ccc34)OCCO5)CN2C(=O)[C@H]1NC(=O)OC(C)(C)C(F)(F)F` [Compound 5334, 1,1,1-trifluoro-2-methylpropan-2-yl((2R,6S,7R,9R,13aS,14aR,16aS,Z)-2-((2,3-dihydro-[1,4]dioxino[2,3-f]isoquinolin-7-yl)oxy)-7-ethyl-9-methyl-14a-(((1-methylcyclopropyl)sulfonyl)carbamoyl)-5,16-dioxo-1,2,3,5,6,7,8,9,10,11,13a,14,14a,15,16,16a-hexadecahydrocyclopropa[e]pyrrolo[1,2-a][1,4]diazacyclopentadecin-6-yl)carbamate], the EC50 in assay [1] (setting [3]) and in assay [2] (setting [4]) was less than 5.46 nM throughout.
